Experimental data from article PMC12163635, “Synthetic Retinoids for the Modulation of Genomic and Nongenomic Processes in Neurodegenerative Diseases” (ACS Omega, 2025).

Key:
[1] = target: T1, RARα (Homo sapiens, UniProt P10276); test: Fluorescence competition binding assay (displacement of DC271); conditions: for Kd: stated for the RARs (RARα and RARγ) together, read-out: K D, binding to the RARs
T1 sequence (P10276 182-417): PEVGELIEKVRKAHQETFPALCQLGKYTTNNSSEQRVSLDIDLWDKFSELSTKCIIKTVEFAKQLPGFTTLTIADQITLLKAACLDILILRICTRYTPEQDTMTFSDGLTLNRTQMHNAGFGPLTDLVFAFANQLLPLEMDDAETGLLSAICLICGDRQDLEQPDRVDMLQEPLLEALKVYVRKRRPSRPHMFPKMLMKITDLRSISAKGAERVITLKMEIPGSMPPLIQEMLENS
Outline: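 Recombinant RARα and RARγ LBDs (E. coli-expressed, His/NusA or His/SUMO tag removed by 3C cleavage, SEC-purified) were titrated with serially diluted retinoids displacing fluorescent retinoid DC271. Fluorescence change was fitted by nonlinear least-squares regression to give equilibrium dissociation constant KD.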

[2] = target: T2, RARγ (Homo sapiens, UniProt P13631); test: as above; conditions: for Kd: 100 nM RAR and DC271 on plate, read-out: Binding KD (± SD) RARγ; for ΔGEXP RARγ: experimental binding free energy from K D, ΔGexp=−RT ln K, 298.1 K
T2 construct: His6-3C-SUMO (cleaved yes); made in house; host or cells: E. coli BL21(DE3), pOPINS3C vector
T2 sequence (P13631 185-419 limits assumed): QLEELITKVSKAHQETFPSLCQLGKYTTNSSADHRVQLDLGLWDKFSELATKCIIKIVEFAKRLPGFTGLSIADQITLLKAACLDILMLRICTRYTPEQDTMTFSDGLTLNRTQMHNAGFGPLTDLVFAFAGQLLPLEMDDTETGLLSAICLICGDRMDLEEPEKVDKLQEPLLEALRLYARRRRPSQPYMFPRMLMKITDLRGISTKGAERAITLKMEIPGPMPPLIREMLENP
Method: Fluorescence competition assays were employed to determine the relative binding affinities of each synthetic retinoid toward the LBD of the RARs. The assay is based on the potential for competitive displacement of the inherently fluorescent retinoid DC271 from the LBP by a test nonfluorescent synthetic retinoid. Changes in the fluorescence were measured following the addition of a serial dilution of the test compound and the results were plotted to generate a binding curve. […] Assays were performed for both RARα and RARγ. […] Nonlinear least-squares regression analyses were performed to calculate binding affinities and reported as binding K D, the equilibrium dissociation constant between the RAR isoform and the test synthetic retinoid.
RARα/γ proteins were expressed in BL21(DE3) cells (NEB) transformed into pET50b (Novagen) and pOPINS3C vectors, respectively, carrying the gene construct and containing a His6-3C-NusA tag or His6-3C-SUMO tag used for solubility. Transformations were carried out under standard conditions using Quick Transformation Protocol (New England Biolabs). Successful transformants were grown overnight in 2xYT media (Melford) and frozen for storage at −80 °C in 50% glycerol. Expression cultures were inoculated from glycerol stocks into 25 mL of 2xYT media (Melford) with 50 μg/mL kanamycin or 100 μg/mL ampicillin (Sigma-Aldrich) and grown overnight with shaking (37 °C, 150 rpm). The overnight cultures were transferred into 1 L expression flasks (2xYT/ampicillin 100 μg/mL or 2xYT/kanamycin 50 μg/mL) and grown with shaking at 37 °C, 150 rpm. Induction was carried out at an OD600 of 0.6–0.8, with 1 mL of 1 M IPTG (1 mM in culture), before shaking overnight (20 h) at 18 °C. The resulting cultures were spun down into pellets using an Avanti Hi-Speed centrifuge (JLA 8.1000, 4000 rpm, 30 min, 4 °C), before the supernatant was removed and the bacterial pellet were frozen at −80 °C.
RARα/γ (pET50b or pOPINS3C, BL21(DE3) (NEB)) were resuspended from pellet with 20 mL Wash Buffer (20 mM Tris-HCl, 300 mM NaCl and 20 mM imidazole, pH 8) and the resulting suspension was sonicated on ice (40% power, 2 min, repeated twice with 1 min rest in-between) before centrifuging (Avanti Hi-Speed JA25.50, 20,000 rpm, 1 h, 4 °C). Supernatants were clarified using 0.45 μm syringe filters (Thermo Fisher Scientific). Affinity chromatography and size-exclusion (SEC) chromatography were carried out on AKTA Pure25 (Cytiva). Supernatants were loaded onto the HisTrap HP column (5 mL, Cytiva) and washed using 25 mL of wash Buffer. The column was washed with Wash Buffer until UV trace returned to baseline, before RARα/γ was eluted using a gradient of Elution Buffer (20 mM Tris-HCl, 300 mM NaCl, 500 mM imidazole pH 8). The resulting protein-containing fractions were analyzed by SDS-PAGE (200 V, 30 min) using SurePAGE Bis-Tris 12% precast gels (Genscript). Protein concentrations were estimated using absorbance at 280 nm on a DS-11 spectrophotometer (Denovix) with calculated molecular weights and extinction coefficients (Expasy). RAR proteins were cleaved overnight from 3C-NusA tag or 3C-SUMO-His tag using 1 Unit/100 μg protein of HRV3C protease (Thermo Fisher Scientific) at 4 °C. Solution after digestion was loaded onto a HiLoad 16/600 Superdex 75 prep-grade column (Cytiva) and cleaved RARα/γ was separated from the tag based on molecular weight and eluted from the column using SEC Buffer (20 mM Tris-HCl, 300 mM NaCl and 0.5 mM TCEP, pH 8) into 2 mL fractions. The resulting protein fractions were analyzed by SDS PAGE (200 V, 30 min) using SurePAGE Bis-Tris 12% precast gels (Genscript), before being concentrated to 5 mg/mL using centrifugal concentrators (Sartorius) and frozen at −80 °C in small aliquots for use in binding assays.

Row | Structure (SMILES) | Kd [1] | Kd [2] | ΔGEXP RARγ [2] | binding preference RARα versus RARγ (from K D) ([1]; log-log plot of K D for RARα and RARγ)
1 | Cc1sc(-c2ccc(C(=O)O)cc2F)nc1-c1cnc2c(n1)C(C)(C)CCC2(C)C [Compound 43, 3-Fluoro-4-[5-methyl-4-(5,5,8,8-tetramethyl-5,6,7,8-tetrahydroquinoxalin-2-yl)-1,3-thiazol-2-yl]benzoic Acid] | > 1 µM | 2.71 µM | -7.74 kcal/mol | 
2 | Cc1sc(-c2ccc(C(=O)O)cc2)nc1-c1ccc2c(c1)C(C)(C)CCC2(C)C [GZ25, reference compound] | 0.1 to 1 µM | 0.335 µM | -8.84 kcal/mol | bind RARγ stronger than RARα
